In article PMC10233092, “Selective Janus kinase 1 inhibition resolves inflammation and restores hair growth offering a viable treatment option for alopecia areata” (Skin Health and Disease, 2023):
≈ marks a conversion by molar mass, not a printed value. Where “and” joins values, the source holds several entries; their conditions need not be identical. Equal values may be shown once.

Assays:
[1] = Solubility in phosphate buffer; assay type: physicochemical; conditions: pH 7.4, aqueous buffer
Source text: TABLE 1 In vitro potency and selectivity of JAK inhibitors | column: Solubility (μM) ^c

[2] = test system: Human Peripheral Blood Mononuclear Cells (PBMCs); assay: Cytokine release from anti-CD3-stimulated human PBMCs; assay type: cell-based; conditions: during stimulation with anti‐CD3, 40–48 h
Method: Human Peripheral Blood Mononuclear Cells (PBMCs) were isolated by Sepmate technique (Stemcell Technologies) from heparinized venous blood from healthy volunteers. Primary human CD8^+ T‐cells were further isolated using a CD8^+ T cell Isolation Kit according to protocol (Miltenyi Biotec). Experiments were approved by the local ethical committee in Gothenburg (033‐11).
Soluble anti‐CD28 were added to the CD8^+ cultures to facilitate co‐stimulation. After 40–48 h, supernatants were harvested for mediator analysis and the cells were washed and resuspended in RLT buffer (Qiagen) for RNA isolation.
Analysis of human cytokine panels was carried out using a Luminex assay kit from Merck Millipore (Cat# HCYTMAG‐60K‐PX41) and Mesoscale Discovery (MSD) immunoassay kits (Cat# K211AEB‐2 and K15049D) as recommended in the respective supplier protocols.

[3] = test system: AA mice; set-up: method as in PMID 25129481; conditions: 12 weeks of treatment, 3 months follow up; cited from earlier work
[4] = Plasma and skin exposure in treated AA mice; conditions: 3% cream topically, one hour after application
[5] = test system: IL‐4, STAT6‐Luc; assay: IL-4-induced JAK-STAT6-luciferase assay in U937 monocytes; assay type: cell-based; conditions: Homo sapiens, U-937, interleukin at EC80
[6] = test system: IL‐13, STAT6‐Luc; assay: IL-13-induced JAK-STAT6-luciferase assay in U937 monocytes; assay type: cell-based; conditions: Homo sapiens, U-937, interleukin at EC80

Row | Compound | solubility [1] [µM] | release of IL‐1RA from PBMCs [2] | remission after treatment [3] | unbound plasma exposure over IC50 [4] | IC50 [5] [nM] | IC50 [6] [nM]
1 | C[C@@H]1CCN(C(=O)CC#N)C[C@@H]1N(C)c1ncnc2[nH]ccc12 [Tofacitinib, reference compound] | > 1000 | dramatically increased | induced stable remission | 3–7 fold IC50 and 5 fold IC50 | – | –
2 | N#CC[C@H](C1CCCC1)n1cc(-c2ncnc3[nH]ccc23)cn1 [Ruxolitinib, reference compound] | 678 (≈ 208 µg/mL) | dramatically increased | induced stable remission | – | 110 | 82
